Results published in patent US10702538B2, “Ship inhibition to induce activation of natural killer cells” (THE RESEARCH FOUNDATION FOR THE STATE UNIVERSITY OF NEW YORK, priority 2014, dated 2020).
Entries after “also recorded” stand apart in the source; their conditions may differ.

Columns and labels:
RMA cells = experiment: Survival of RMA tumor bearing mice; format: in vivo, C57BL/6 mice; settings: 1×10^5 cells; treated two consecutive days each week; vs vehicle treated groups
Procedure: (§1) FIG. 2: C57BL/6 mice received either RM A cells (3AC RMA and Veh RMA groups) or RMA cells transfected with the NKG2D ligand Rae1 (3AC Rae1 and Veh Rae1 groups) and were treated two consecutive days each week starting twelve hours after receiving the tumor. […] The Kaplan-Meyer survival curve represents two independent, pooled, experiments of RMA-Rae1 tumor bearing mice treated with either vehicle (n=10/experiment) or SHIPi (n=10/experiment) or one experiment of RMA tumor bearing mice treated with either vehicle (n=10/experiment) or SHIPi (n=10/experiment).
(§2) To determine if short term administration of SHIPi could have an in vivo functional effect we injected 5×10^5 RMA cells transected with the NKG2D ligand Rae1 into C57BL/6 mice. RMA is a mouse BL/6 derived T cell lymphoma cell line (raucher virus induced cell leukemia cell line); thus a rejection of a tumor graft in BL/6 mice is due to the presence of the Rae1 ligand or due to SHIPi treatment. Mice were treated with SHIPi (33 mg/kg) for two consecutive days and on the third day peritoneal lavage was performed to recover peritoneal contents. […] Finally, showing that there is a survival benefit for mice receiving short term SHIPi, C57BL/6 mice were injected with 1×10^5 RMA or RMA cells transected with the NKG2D ligand Rae1 and then were treated two consecutive days with SHIPi or with vehicle control. […]

[1] = test system: RMA cells transfected with the NKG2D ligand Rae1; experiment: Survival of RMA-Rae1 tumor bearing mice; format: in vivo, C57BL/6 mice; settings: 1×10^5 cells; treated two consecutive days each week; vs the other three groups
Procedure: as §1, §2

[2] = test system: peritoneal NK and myeloid cells; experiment: Peritoneal cell populations in RMA-Rae1 tumor bearing mice (flow cytometry of lavage); format: in vivo, C57BL/6 mice; settings: after two days of treatment, vs vehicle
Procedure: FIGS. 6A-6D: SHIPi treated mice have increased peritoneal myeloid and NK cells. FIGS. 6A-D: 5×10^5 GFP expressing RMA-Rae1 cells were injected into C57BL/6 mice. Mice were treated for two days with SHIPi or vehicle alone. Peritoneal lavage was performed on the third day. Cells collected by lavage were stained with anti-NK1.1, anti-CD3ε, anti-CD19, anti-CD11b and anti-GR1 antibodies and were analyzed by flow cytometry. All populations were determined after backgating on singlets and viable cells. NK cells are NK1.1^+CD3ε^−CD19^−, T cells are CD3ε^+NK1.1^−CD19^−, B cells are CD19^+NK1.1^−CD3ε^− and myeloid cells are CD11b^+GR1^+. FIG. 6B: Graph represents pooled data from two independent experiments using at least 4 SHIPi treated mice and 4 vehicle treated mice in each experiment.
To determine if short term administration of SHIPi could have an in vivo functional effect we injected 5×10^5 RMA cells transected with the NKG2D ligand Rae1 into C57BL/6 mice. RMA is a mouse BL/6 derived T cell lymphoma cell line (raucher virus induced cell leukemia cell line); thus a rejection of a tumor graft in BL/6 mice is due to the presence of the Rae1 ligand or due to SHIPi treatment. Mice were treated with SHIPi (33 mg/kg) for two consecutive days and on the third day peritoneal lavage was performed to recover peritoneal contents. […]

[3] = test system: immunoregulatory cells (MDSC, nTreg, neutrophils); experiment: Preliminary studies: immunoregulatory cells in mice after SHIP inhibitor; format: in vivo, wt C57BL/76 mice
Procedure: K118 was administered in water, and in wt C57BL/76 mice.

RMA-Rae1 cells = experiment: In vivo rejection of GFP expressing RMA-Rae1 tumor cells, peritoneal lavage and flow cytometry; parameters: species or system C57BL/6 mice; settings: listed as SHIPi
Procedure: FIG. 4A; 5×10^5 GFP expressing RMA-Rae1 cells were injected into C57BL/6 mice. Mice were treated with either SHIPi or vehicle for two days. Peritoneal lavage was performed on the third day and cells collected by lavage were analyzed by flow cytometry. Flow cytometry plots indicated GFP positive cells after removal of dead cells and non-singlets via electronic gating. FIG. 4B: Graph represents poled data from two independent experiments using at least 4 SHIPi treated mice and 4 vehicle treated mice in each experiment.
FIG. 5A: 5×10^5 GFP expressing RMA-Rae1 cells were injected into C57BL/6 once or RAG1^−/− mice. Mice were treated with either SHIPi or vehicle for two days. Peritoneal lavage was performed on the third day and cells collected by lavage were analyzed by flow cytometry. Flow cytometry plots indicated GFP positive cells after removal of dead cells and nom-singlets via electronic gating. FIG. 5B: Graph summarizes data from 5 SHIPi treated C57BL/6 mice, 5 SHIPi treated RAG1^−/− mice, 5 vehicle treated C57BL/6 mice, and 5 vehicle treated RAG1^−/− mice.
To determine if short term administration of SHIPi could have an in vivo functional effect we injected 5×10^5 RMA cells transected with the NKG2D ligand Rae1 into C57BL/6 mice. RMA is a mouse BL/6 derived T cell lymphoma cell line (raucher virus induced cell leukemia cell line); thus a rejection of a tumor graft in BL/6 mice is due to the presence of the Rae1 ligand or due to SHIPi treatment. Mice were treated with SHIPi (33 mg/kg) for two consecutive days and on the third day peritoneal lavage was performed to recover peritoneal contents. […] Finally, showing that there is a survival benefit for mice receiving short term SHIPi, C57BL/6 mice were injected with 1×10^5 RMA or RMA cells transected with the NKG2D ligand Rae1 and then were treated two consecutive days with SHIPi or with vehicle control. This was repeated each week such that mice received treatment or vehicle twice a week with five days rest in between each treatment. Treatment start days were spaced a week apart.

NK cells = experiment: IFNγ production assay: ex vivo stimulation of NK cells from SHIPi treated mice; format: in vivo; settings: vs vehicle treated mice; for IFNγ production by NK cells following ex vivo stimulation with anti-NK1.1, anti-NKp46 or anti-NKG2D antibody: mice treated daily 33 mg/kg for two days, 33 mg/kg
Procedure: IFNγ production assay methods: Mice were treated daily with SHIPi (33 mg/kg) for two days. Mice were sacrificed by CO2 toxicity on the third day. Splenocytes were harvested and incubated for four-five hours in six well plates in the presence of Golgiplug (BD) either alone, in plates coated with either anti-NK1.1 (PK136), anti-NKp46 (2PA1.4) or anti-NKG2D (A10) antibody or in uncoated plates but with PMA ([…]) and ionomycin as a positive control. After incubation splenocytes were removed from the plates, Fc Receptors were blocked (2.4G2) and cells were stained with the Invitrogen Aqua Live/Dead cell exclusion dye. NK cells were identified by staining for either NK1.1 (PK136) or NKp46 (29A1.4) and […] (145-2C11). T cells were excluded. Cells were fixed and permeabilized (BD Cytofx/Cytoperm kit), intracellular Fc receptors were blocked (2.4G2) and stained for IFNγ (XMG1.2). Samples were run on a BD Fortessa flow cytometer and analyzed using FloJo software.

SHIP1 = molecular target: T1, SHIP1 (Homo sapiens, UniProt Q92835); experiment: SHIP1 inhibitor activity; format: biochemical; settings: compared with 3AC
T1 sequence (Q92835 1-1189): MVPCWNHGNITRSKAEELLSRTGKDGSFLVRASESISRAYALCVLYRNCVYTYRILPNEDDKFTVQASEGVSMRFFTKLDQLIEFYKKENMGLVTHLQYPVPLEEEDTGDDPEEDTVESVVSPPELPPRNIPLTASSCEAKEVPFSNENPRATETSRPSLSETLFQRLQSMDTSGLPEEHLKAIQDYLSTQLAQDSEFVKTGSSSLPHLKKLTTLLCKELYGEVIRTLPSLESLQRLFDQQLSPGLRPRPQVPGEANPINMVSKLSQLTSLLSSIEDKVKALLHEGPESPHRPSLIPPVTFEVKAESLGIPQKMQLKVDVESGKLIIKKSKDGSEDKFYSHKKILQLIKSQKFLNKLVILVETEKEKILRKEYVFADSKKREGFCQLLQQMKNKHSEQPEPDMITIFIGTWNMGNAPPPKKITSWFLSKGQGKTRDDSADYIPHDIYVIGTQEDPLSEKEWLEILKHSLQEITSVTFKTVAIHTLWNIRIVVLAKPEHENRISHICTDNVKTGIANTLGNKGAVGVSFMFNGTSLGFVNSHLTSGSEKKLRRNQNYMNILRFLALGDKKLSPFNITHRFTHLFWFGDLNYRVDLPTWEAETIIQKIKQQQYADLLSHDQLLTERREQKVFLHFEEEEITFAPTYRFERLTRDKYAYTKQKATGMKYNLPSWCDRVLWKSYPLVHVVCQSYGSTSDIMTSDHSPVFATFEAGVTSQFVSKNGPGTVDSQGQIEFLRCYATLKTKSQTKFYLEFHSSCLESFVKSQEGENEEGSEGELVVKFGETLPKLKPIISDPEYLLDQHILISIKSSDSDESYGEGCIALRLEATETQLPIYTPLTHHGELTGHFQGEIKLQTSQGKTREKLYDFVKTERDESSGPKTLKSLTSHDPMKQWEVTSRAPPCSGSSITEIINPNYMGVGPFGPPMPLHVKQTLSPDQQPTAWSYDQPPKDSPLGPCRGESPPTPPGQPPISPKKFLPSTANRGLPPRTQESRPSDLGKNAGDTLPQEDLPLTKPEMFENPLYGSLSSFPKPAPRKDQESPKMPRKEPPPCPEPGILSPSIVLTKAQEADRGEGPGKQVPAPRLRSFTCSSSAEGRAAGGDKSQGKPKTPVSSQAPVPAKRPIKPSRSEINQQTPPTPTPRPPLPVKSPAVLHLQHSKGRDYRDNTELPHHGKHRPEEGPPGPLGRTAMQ

[4] = spleen, orally at 10 mg/kg in water

| SMILES | Survival of RMA tumor bearing mice (RMA cells) | Survival of RMA-Rae1 tumor bearing mice [1] | Peritoneal myeloid cells (CD11b+GR1+) [2] | Numbers of NK cells in the peritoneal cavity ([2]; listed as SHIPi) | Neutrophil numbers ([3]; intraperitoneal injection) | Tumor burden (GFP positive RMA-Rae1 cells in peritoneal lavage) (RMA-Rae1 cells; C57BL/6 mice, 5×10^5 cells, 33 mg/kg two consecutive days, lavage on third day, vs vehicle, 33 mg/kg) | Protection against RMA-Rae1 tumor in mice lacking B and T cells (RMA-Rae1 cells; RAG1−/− mice (printed RAKG−/−), two days treatment) | Protection against RMA-Rae1 tumor after in vivo depletion of NK cells (RMA-Rae1 cells; pretreated with anti-NK1.1 antibody PK136 200 ug 24 hours before tumor injection, vs isotype control antibody) | IFNγ production by NK cells following ex vivo stimulation with anti-NK1.1, anti-NKp46 or anti-NKG2D antibody (NK cells) | IFNγ production by NK cells following ex vivo stimulation with anti-NK1.1, anti-NKp46 or anti-NKG2D antibody (NK cells; listed as SHIPi) | IFNγ production by NK cells unstimulated or stimulated with PMA and ionomycin (NK cells; mice treated two days) | Water solubility (Water solubility) | Frequency of natural T regulatory cells (nTreg, CD4+CD25+FoxP3+) ([3]; mesenteric lymph node (mLN), orally at 10 mg/kg in water) | Neutrophil numbers ([3]; orally at 10 mg/kg in water) | Frequency of myeloid derived suppressor cells (MDSC) expressing Gr1 and Mac1 [3, 4] | Frequency of natural T regulatory cells (nTreg, CD4+CD25+FoxP3+) [3, 4] | SHIP1 inhibitor activity relative to 3AC (SHIP1) |
| --- | --- | --- | --- | --- | --- | --- | --- | --- | --- | --- | --- | --- | --- | --- | --- | --- | --- |
| CC(C)CCC[C@@H](C)[C@H]1CC[C@H]2[C@@H]3CCC4C[C@H](N)CC[C@]4(C)[C@H]3CC[C@]12C (stereo partly drawn) [3AC, 3 α-aminocholestane] | no significant survival difference | significantly increased survival | increased | significantly increased numbers of NK cells | increased neutrophil numbers | significantly reduced tumor burden; also recorded: increased tumor rejection | retained protection; also recorded: not due to B or T cells | protection is significantly reduced | significantly increased IFNγ production; also recorded: significantly increased amounts of IFNγ | significantly increased IFNγ | do not see a significant difference | – | – | – | – | – | – |
| C[C@@]12CCC[C@H]1[C@@H]1CC[C@H]3C[C@@H](N)CC[C@]3(C)[C@H]1CC2.Cl [K118, 3β-amino-5α-androstane hydrochloride] | – | – | – | – | – | – | – | – | – | – | – | water-soluble | Significant increases | trend for increased neutrophil numbers | significant increase | Significant increases | comparable SHIP1 inhibitor activity |
